Test results from patent publication US9408891B2, “Methods of using gelsolin to treat or prevent bacterial sepsis” (priority 2003, dated 2016).
“Also recorded” adds a separate entry of the source.

Experiments:
rat primary astrocytes = experiment: LPS-induced actin cytoskeleton disassembly, phalloidin staining, astrocytes; assay type: cell-based; settings: LPS 10 μg/ml, 10 min
Excerpt: (§1) In light of the findings in the previous Examples, and using the materials prepared in above, the effect of the gelsolin binding by LPS was studied to determine the effect on cellular responses in vitro. Cell cultures of human aortic endothelial cells (HAEC) and rat primary astrocytes were used to evaluate the effect of LPS on actin. Both of these cell types have mCD14 (membrane bound C14) and TLR LPS receptors (Faure, et al., J. Biol. Chem. 275:11058-11063 (2000); Bsibsi, et al., J. Neuropathol. Exp. Neurol. 61:1013-1021 (2002); Bowman, et al., Glia 43:281-291 (2003)).
Rat primary astrocytes were obtained from prenatal rats and maintained for 14 days in culture before use. Embryos (E17-E19) were removed by caesarian section from a Sprague-Dawley rat and the hippocampi were surgically removed. The tissue was digested in trypsin/DNAse at 37° C., centrifuged (1000×5 min) and filtered to derive suspensions from each pup. […]
(§2) HAECs and astrocytes cultures were incubated for 10 minutes in medium containing 10 μg/ml LPS alone, or LPS that had been pre-incubated with 0.16 mg/ml of human gelsolin. […] Location of transcription factor nuclear factor-kappaB (NF-κB) was observed using a monoclonal antibody to NF-κB (Molecular Probes), and cell nuclei were detected by counter-staining with 4′, 6-diamidino-2-phenylindole dihydrochloride (DAPI) (Sigma).

[1] = target: T1, recombinant human gelsolin (rhGLS) (Homo sapiens, UniProt P06396); experiment: Actin filament severing activity of purified gelsolin (pyrene F-actin depolymerization); assay type: biochemical
T1 construct: purchased Biogen IDEC, Inc., Cambridge, Mass; host or cells: E. coli
Experimental: To determine gelsolin's severing activity, rates of fluorescence decrease were evaluated during depolymerization. Monomeric G-actin was prepared from an acetone powder of rabbit skeletal muscle according to previously published methods (Spudich et al., J. Biol. Chem […]). The non-polymerizing solution contained 2 mM TRIS, 0.2 mM CaCl2, 0.5 mM ATP (adenosine triphosphate), 0.2 mM DTT (dithiothreitol) pH 7.4. Actin was polymerized by adding 150 mM KCl and 2 mM MgCl2 to the G-actin solutions and incubating for 1 hour at room temperature.
For F-actin severing assays, in general, a small volume (typically 5 μl) of the gelsolin composition is added to a similar volume of pyrene-labeled F-actin at a concentration adjusted to provide an actin:gelsolin ratio of approximately 10:1 (typically 1 μM gelsolin and 10 μM actin). This mixture is the diluted to 0.5 μM in a larger volume of F-actin buffer, and the filament severing efficiency is calculated from the initial slope of the fluorescence change. This reflects the rate of depolymerization that, in turn, is proportional to the number of cuts made by gelsolin. The LPS/gelsolin reaction can be done under any ionic condition, and the addition to F-actin requires the presence of […] Ca^2+ to activate the gelsolin. […] The actin nucleation reaction is similar except that in the latter case, the gelsolin/LPS mixture is added to a more dilute solution of G-actin (typically, 1 or 2 μM) in low ionic strength buffer followed immediately by addition of 150 mM KCI and 2 mM MgCl2 to initiate polymerization.
(§3) As shown, recombinant human gelsolin (rhGLS) (FIG. 4A) and blood serum (FIG. 4B) severing activity was measured in 0.4 μM pyrene-labeled F-actin samples (polymerized with 50% pyrene-labeled G-actin), after adding gelsolin (16 nM)/serum (2.5 μl), or their combination with one of the following: LPS (from different species), PIP2 (phosphatidyl-inositol-4,5-bisphosphate), LPA (lysophosphatidic acid), lipid A (the LPS derivative lacking polysaccharide) or PS (phosphatidylserine). The fluorescence intensity of F-pyrene actin was then monitored for 10 minutes, and the severing activity was calculated based on decreasing fluorescence. Severing activity was determined from a decrease in rate of fluorescence during depolymerization, and the depolymerization rate was calculated from the slope of the early decrease in fluorescence.

[2] = target: T2, gelsolin activity in whole human serum (Homo sapiens, UniProt P06396); experiment: Actin filament severing activity of whole human serum; assay type: biochemical; settings: larger amounts needed than with pure gelsolin
T2 construct: from tissue; host or cells: whole human serum (2.5 µl)
Experimental: as §3

[3] = tested on: human aortic endothelial cells (HAEC); experiment: LPS-induced actin cytoskeleton disassembly, phalloidin staining, endothelial cells; assay type: cell-based; settings: LPS 10 μg/ml, 10 min
Excerpt: as §1
HAECs (primary human aortic endothelial cells) (ATCC, Rockville, Md. or Clonetics, San Diego, Calif.), will grow to confluence through passages 5-9 in endothelial cell growth medium supplemented with 2% fetal bovine serum, 10 μg/liter human recombinant epidermal growth factor, 1 mg/liter hydrocortisone, 50 μg/ml gentamicin, 50 ng/ml amphotericin-B, in a 37° C. humidified atmosphere of 95% air:5% C02.
as §2

T1 sequence (P06396 28-782): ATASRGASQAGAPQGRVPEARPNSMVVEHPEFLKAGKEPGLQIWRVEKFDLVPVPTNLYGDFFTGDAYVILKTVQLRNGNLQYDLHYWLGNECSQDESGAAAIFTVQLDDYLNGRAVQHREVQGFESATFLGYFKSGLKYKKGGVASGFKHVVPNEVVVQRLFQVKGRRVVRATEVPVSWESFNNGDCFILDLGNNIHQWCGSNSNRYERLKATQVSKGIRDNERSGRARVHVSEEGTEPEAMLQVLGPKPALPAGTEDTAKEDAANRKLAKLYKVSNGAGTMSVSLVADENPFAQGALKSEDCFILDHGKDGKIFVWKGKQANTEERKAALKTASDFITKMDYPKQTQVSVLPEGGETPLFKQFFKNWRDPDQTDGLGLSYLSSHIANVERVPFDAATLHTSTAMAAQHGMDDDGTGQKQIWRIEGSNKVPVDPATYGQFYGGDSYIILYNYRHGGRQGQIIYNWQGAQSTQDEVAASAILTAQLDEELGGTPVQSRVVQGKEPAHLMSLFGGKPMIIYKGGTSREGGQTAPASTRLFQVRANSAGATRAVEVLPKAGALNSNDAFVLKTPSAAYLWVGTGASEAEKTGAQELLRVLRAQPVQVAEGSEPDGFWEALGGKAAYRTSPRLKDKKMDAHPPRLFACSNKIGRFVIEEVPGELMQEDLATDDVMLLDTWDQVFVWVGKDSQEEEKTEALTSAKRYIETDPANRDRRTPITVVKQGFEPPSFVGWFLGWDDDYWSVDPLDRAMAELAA
T2 sequence (P06396 28-782): as above

## lipopolysaccharide [LPS]
Rat primary astrocytes
  effect of LPS alone on actin cytoskeleton: rapidly induced the disassembly of the actin cytoskeleton; also recorded: disassembly of the actin cytoskeleton was readily induced; also recorded: rapidly induced disassembly of the actin cytoskeleton
[1]; 0.02 μM LPS (100 ng/ml), 0.016 μM gelsolin
  inhibition of severing activity of gelsolin: 50%
[1]; 0.1 μM LPS, 0.016 μM gelsolin
  inhibition of severing capability of gelsolin: 90%
[1]; LPS concentration not stated at this place
  inhibition of severing activity of purified human gelsolin: 50%
[1]; molar basis comparison
  inhibitory effect on severing activity of purified gelsolin: more potent inhibitor than either LPA or P1P2; also recorded: more potent inhibitor; also recorded: more potent inhibitor of gelsolin actin severing capability than either LPA or PIP2
[2]
  inhibition of gelsolin activity in whole human serum: able to inhibit gelsolin activity; also recorded: inhibitory efficiency varies with the bacterial species
[3]
  effect of LPS alone on actin cytoskeleton: rapidly induced the disassembly of the actin cytoskeleton; also recorded: disassembly of the actin cytoskeleton was readily induced; also recorded: rapidly induced disassembly of the actin cytoskeleton
